In patent publication US20040220089A1, “Ophthalmic preparation containing glycoprotein” (priority 2001, published 2004):

Tested on: Madin-Darby Canine Kidney (MDCK) cells
Test: in vitro transepithelial permeability assay (fluorescein, Tchao) for eye irritation potential
Conditions: MDCK monolayer, 30 minutes at 37° C., Na-fluorescein permeability; SDS=100% response; less than 20% considered non-irritating
Excerpt: The Tchao technique is described as a method of determining potential eye irritation of a substance by correlating damage to a mono-layer of Madin-Darby Canine Kidney (MDCK) cells with damage to corneal epithelial cells. The amount of fluorescein passing through the cell mono-layer is a function of permeability of the cell mono-layer. Higher cell mono-layer permeability indicates greater damage to the cell junctions from application of a test solution thereto, whereas lower cell mono-layer permeability indicates less damage to the cell junctions from application of the test solution. […]
Test: Each insert is rinsed with Hanks Balanced Salt Solution (HBSS) 3×1 ml using a 10 ml syringe without needle. […] After incubation at room temperature for 30 minutes, the inserts are sequentially removed from the wells, and the amount of Na-fluorescein in each of the wells is measured in a CytoFluor 2300, using 540 nm excitation and 590 nm emission. […] It has been determined that the assay can measure the effect of 50 μg/ml SDS, and the effect on the permeability of the monolayer is linearly proportional to the concentrations of SDS from 50-250 μg/ml. Fluorescence units (arbitrary) of each test solution is plotted against test solutions.
Interpretation of results: The results are expressed as % of SDS response, and comparisons with the HBSS response. […]

SMILES: CCCCCCCCCCCCOS(=O)(=O)[O-].[Na+] [SDS, sodium dodecyl sulfate]
- RESPONSE (percentage of SDS response): 100%
